Results: ChEMBL document CHEMBL4130350, “Discovery, mechanism and metabolism studies of 2,3-difluorophenyl-linker-containing PARP1 inhibitors with enhanced in vivo efficacy for cancer therapy” (Eur J Med Chem, 2017)

Experiments:
V79 = test: Cytotoxicity against BRCA2 expressing Chinese hamster V79 cells after 3 days by CCK8 or SRB assay; type: cell-based; conditions: Cricetulus griseus, V79, 72 h
[1] = Cytotoxicity against BRCA2 deficient Chinese hamster VC8 cells after 3 days by CCK8 or SRB assay; type: functional, cell-based; conditions: Cricetulus griseus, V-C8, 72 h
MDA-MB-436 = test: Antiproliferative activity against human MDA-MB-436 cells after 7 days by CCK8 or SRB assay; type: functional, cell-based; conditions: MDA-MB-436, 168 h
[2] = target: Poly [ADP-ribose] polymerase 1 (Homo sapiens, UniProt P09874); test: Inhibition of PARP1 (unknown origin) by ELISA
Chain of Poly [ADP-ribose] polymerase 1 (P09874 whole entry): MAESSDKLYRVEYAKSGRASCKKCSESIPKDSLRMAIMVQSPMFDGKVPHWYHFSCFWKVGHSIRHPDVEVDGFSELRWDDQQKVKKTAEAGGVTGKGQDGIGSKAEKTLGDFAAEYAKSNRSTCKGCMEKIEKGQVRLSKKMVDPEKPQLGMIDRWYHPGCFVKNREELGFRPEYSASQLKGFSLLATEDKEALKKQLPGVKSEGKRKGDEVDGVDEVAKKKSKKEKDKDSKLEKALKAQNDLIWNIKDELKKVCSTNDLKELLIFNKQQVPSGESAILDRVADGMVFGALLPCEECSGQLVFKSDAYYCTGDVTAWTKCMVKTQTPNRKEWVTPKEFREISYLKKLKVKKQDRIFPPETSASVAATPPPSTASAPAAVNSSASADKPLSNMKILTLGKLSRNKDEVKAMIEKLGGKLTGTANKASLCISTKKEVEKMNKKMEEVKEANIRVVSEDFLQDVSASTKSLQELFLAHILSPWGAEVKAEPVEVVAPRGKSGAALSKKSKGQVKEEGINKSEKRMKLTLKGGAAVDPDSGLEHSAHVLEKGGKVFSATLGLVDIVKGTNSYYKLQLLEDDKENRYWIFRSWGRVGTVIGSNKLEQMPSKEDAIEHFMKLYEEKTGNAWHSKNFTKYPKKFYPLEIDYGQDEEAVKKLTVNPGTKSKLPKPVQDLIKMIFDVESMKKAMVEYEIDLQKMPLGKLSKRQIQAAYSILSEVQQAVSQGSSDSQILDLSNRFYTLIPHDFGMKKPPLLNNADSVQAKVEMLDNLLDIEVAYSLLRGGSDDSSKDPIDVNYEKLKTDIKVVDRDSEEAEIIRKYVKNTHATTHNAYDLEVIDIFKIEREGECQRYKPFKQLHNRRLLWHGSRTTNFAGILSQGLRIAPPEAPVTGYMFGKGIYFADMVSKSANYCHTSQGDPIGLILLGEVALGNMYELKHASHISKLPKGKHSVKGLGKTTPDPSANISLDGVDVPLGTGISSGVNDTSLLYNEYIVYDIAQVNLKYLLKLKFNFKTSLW

Row | SMILES | IC50 (V79) | IC50 [1] | IC50 (MDA-MB-436) | IC50 [2]
1 | O=C(c1cc(Cc2n[nH]c(=O)c3ccccc23)cc(F)c1F)N1CCN(C(=O)C2CCCO2)CC1 (stereo not drawn) | > 10000 nM | 68.1 nM | 4.9 nM | 2.4 nM
2 | O=C(c1cc(Cc2n[nH]c(=O)c3ccccc23)cc(F)c1F)N1CCN(c2ncccn2)CC1 |  |  |  | 2.9 nM
3 | O=C(c1cc(Cc2n[nH]c(=O)c3ccccc23)cc(F)c1F)N1CCN(c2ccncc2)CC1 | > 10000 nM | 3290 nM | 3.7 nM | 0.9 nM
4 | O=C(c1cc(Cc2n[nH]c(=O)c3ccccc23)cc(F)c1F)N1CCN(c2ccc(Br)cc2)CC1 |  |  |  | 83.4 nM
5 | Cc1ccc(C(=O)N2CCN(C(=O)c3cc(Cc4n[nH]c(=O)c5ccccc45)cc(F)c3F)CC2)cc1 |  |  |  | 29.1 nM
6 | O=C(c1cc(Cc2n[nH]c(=O)c3ccccc23)cc(F)c1F)N1CCN(c2ccccc2)CC1 | 6030 nM | 1940 nM | 82.4 nM | 0.5 nM
7 | O=C(c1cc(Cc2n[nH]c(=O)c3ccccc23)cc(F)c1F)N1CCN(C2CCCC2)CC1 | > 10000 nM | 284 nM | 10.6 nM | 2.6 nM
8 | O=C(c1cc(Cc2n[nH]c(=O)c3ccccc23)cc(F)c1F)N1CCN(c2ncc(C(F)(F)F)cn2)CC1 |  |  |  | 70.5 nM
9 | O=C(c1cc(Cc2n[nH]c(=O)c3ccccc23)cc(F)c1F)N1CCN(C(=O)N2CCOCC2)CC1 | > 10000 nM | 938 nM | 25.7 nM | 2.3 nM
10 | O=C(c1cc(Cc2n[nH]c(=O)c3ccccc23)cc(F)c1F)N1CCN(c2ccccc2F)CC1 |  |  |  | 55.8 nM
11 | O=C(c1cc(Cc2n[nH]c(=O)c3ccccc23)cc(F)c1F)N1CCN(c2ccc(O)cc2)CC1 | > 10000 nM | 3970 nM | 27.1 nM | 0.6 nM
12 | O=C(c1cc(Cc2n[nH]c(=O)c3ccccc23)cc(F)c1F)N1CCN(c2ccc([N+](=O)[O-])cc2)CC1 | > 10000 nM | 206 nM | 9.4 nM | 0.4 nM
13 | CCCCN1CCN(C(=O)c2cc(Cc3n[nH]c(=O)c4ccccc34)cc(F)c2F)CC1 | 771 nM | 149 nM | < 0.03 nM | 2.1 nM
14 | O=C(c1cc(Cc2n[nH]c(=O)c3ccccc23)cc(F)c1F)N1CCN(Cc2ccccc2)CC1 |  |  |  | 96.8 nM
15 | N#Cc1ccc(N2CCN(C(=O)c3cc(Cc4n[nH]c(=O)c5ccccc45)cc(F)c3F)CC2)cc1 |  |  |  | 5.4 nM
16 | O=C(c1cc(Cc2n[nH]c(=O)c3ccccc23)cc(F)c1F)N1CCN(c2nccc(Br)n2)CC1 |  |  |  | 110 nM
17 | O=C(c1cc(Cc2n[nH]c(=O)c3ccccc23)cc(F)c1F)N1CCN(c2ccc(Cl)cc2)CC1 |  |  |  | 103 nM
18 | O=C(c1ccccc1)N1CCN(C(=O)c2cc(Cc3n[nH]c(=O)c4ccccc34)cc(F)c2F)CC1 |  |  |  | 6.1 nM
19 | N#Cc1cccc(N2CCN(C(=O)c3cc(Cc4n[nH]c(=O)c5ccccc45)cc(F)c3F)CC2)n1 |  |  |  | 5.1 nM
20 | O=C(c1cc(Cc2n[nH]c(=O)c3ccccc23)cc(F)c1F)N1CCN(c2ncc(Br)cn2)CC1 |  |  |  | 175 nM
21 | O=C(c1cc(Cc2n[nH]c(=O)c3ccccc23)cc(F)c1F)N1CCN(Cc2cccnc2)CC1 |  |  |  | 157 nM
22 | O=C(c1cc(Cc2n[nH]c(=O)c3ccccc23)cc(F)c1F)N1CCN(C(=O)C2CC2)CC1 |  |  |  | 11.2 nM
23 | CC(=O)N1CCN(C(=O)c2cc(Cc3n[nH]c(=O)c4ccccc34)cc(F)c2F)CC1 |  |  |  | 7.1 nM
24 | COc1ccc(N2CCN(C(=O)c3cc(Cc4n[nH]c(=O)c5ccccc45)cc(F)c3F)CC2)cc1 |  |  |  | 112 nM
25 | COc1ccccc1N1CCN(C(=O)c2cc(Cc3n[nH]c(=O)c4ccccc34)cc(F)c2F)CC1 |  |  |  | 297 nM
26 | O=C(c1cc(Cc2n[nH]c(=O)c3ccccc23)cc(F)c1F)N1CCN(C2CCCCC2)CC1 |  |  |  | 3.5 nM
27 | O=C(c1cc(Cc2n[nH]c(=O)c3ccccc23)cc(F)c1F)N1CCN(CC2CC2)CC1 |  |  |  | 9.7 nM
28 | Cc1ccc(Cl)cc1N1CCN(C(=O)c2cc(Cc3n[nH]c(=O)c4ccccc34)cc(F)c2F)CC1 |  |  |  | 324 nM
29 | O=C(c1cc(Cc2n[nH]c(=O)c3ccccc23)cc(F)c1F)N1CCN(c2nsc3ccccc23)CC1 |  |  |  | 52.2 nM
